Test results published in patent publication US12611438B2, “Antiviral composition comprising a nucleolin-binding peptide” (ANYGEN CO., LTD., priority 2021, dated 2026).

Experiments:
in vitro = conditions: African green monkey
SARS-COV-2 = test: microbe, parasite or virus in culture; conditions: Severe acute respiratory syndrome coronavirus 2, Vero C1008, 24 h
MDA-MB-231 = test: OBOC bead whole-cell binding assay; conditions: peptide on OBOC beads, cells at 10^6 cells/ml
Method: (§1) Before screening, beads were extensively washed with double distilled water and phosphate buffered saline (PBS; Welgene Inc., Republic of Korea). Cancer cells and normal cells were separated from the culture dish using trypsin/EDTA (Gibco) and washed with the corresponding culture medium. The cells were resuspended at 10^6 cells/ml and cultured while shaking (60 rpm) in a 37° C. humidified CO2 incubator with OBOC beads in a Petri dish. Beads bound by cells observed with the microscope had the shape of rosettes having central beads covered with one or more cell layers. Under an inverted microscope, positive beads were picked out with a pipette, and treated with guanidine-HCL (8M, 20 minutes) to remove cells and proteins from the bead surface, and secondary screening was performed with normal breast epithelial cells to detect false positive binding. Peptide sequencing was performed by selecting only beads having cell binding in both rounds.
(§2) Libraries of peptides listed in beads (50,000 to 100,000 beads were used at one time) was mixed with a human breast cancer cell line (MDA-MB-231). […] Then, these three peptides were labeled with fluorescein isothiocyanate (FITC) and the ability thereof to bind to MDA-MB-231 cells was determined.

MCF-10A, CCD-18Co = test: Bead whole-cell binding assay, normal cell lines; conditions: cell growth bead analysis
Method: as §1, §2

Compound | CC50 at 24 h (in vitro) | IC50 (SARS-COV-2) | CC50 (in vitro) | binding to breast cancer cell line MDA-MB-231 (MDA-MB-231) | binding to normal cell lines MCF-10A and CCD-18Co (MCF-10A, CCD-18Co)
Cc1cccc(C)c1OCC(=O)N[C@@H](Cc1ccccc1)[C@@H](O)C[C@H](Cc1ccccc1)NC(=O)[C@H](C(C)C)N1CCCNC1=O [Lopinavir, lopinavir] | > 50 µM | 15.5 µM |  |  | 
CCC(CC)COC(=O)[C@H](C)N[P@](=O)(OC[C@H]1O[C@@](C#N)(c2ccc3c(N)ncnn23)[C@H](O)[C@@H]1O)Oc1ccccc1 [Remdesivir, remdesivir] |  | 10.9 µM | > 50 µM |  | 
AVARARRRR (Synthetic construct AGM-332) |  |  |  | strong, specific, and preferential binding | relatively non-specific and bound
